In paper PMC8999917, “Structure–Activity Relationship of Synthetic Ginkgolic Acid Analogs for Treating Type 2 Diabetes by PTPN9 Inhibition” (International Journal of Molecular Sciences, 2022):

Experiments:
Format in all cases: cell-based, mouse
[1] = tested on: C2C12 myotubes; test: 2-NBDG glucose uptake assay in C2C12 myotubes; conditions: 10 µM, plate reader fluorescence
Experimental: (§1) PTPN9 inhibitors have been reported to increase glucose uptake. To clarify the antidiabetic effects of GA analogs, a 2-NBDG (a fluorescent glucose probe) uptake assay was performed using differentiated 3T3-L1 adipocytes and C2C12 myotubes. After 16 h of starvation, differentiated 3T3-L1 adipocytes were incubated with compounds 1e and 1f for another 1 h. The cells were subsequently incubated with 2-NBDG for 30 min and washed with PBS before quantifying the fluorescence of 2-NBDG taken up by the cells. The 2-NBDG uptake-increasing effects of GA and its analogs in 3T3-L1 cells were monitored via confocal microscopy. The blank group was set in the absence of 2-NBDG but was treated with DMSO to determine the basal fluorescence levels in 3T3-L1 adipocytes (Figure 4A, Basal); in the negative control group, 3T3-L1 adipocytes were treated with 2-NBDG and DMSO for the evaluation of basal glucose uptake levels (Figure 4A, DMSO). […] Furthermore, to quantify 2-NBDG uptake, fluorescence intensity (Ex/Em = 485/535 nm) was measured using a plate reader. […] After incubation, the cells were washed with pre-cold PBS, and the fluorescence intensity was measured using a fluorescence microplate reader (Victor^TM X4, PerkinElmer, Waltham, MA, USA) (Ex/Em = 485/535 nm). […]

[2] = tested on: AMPK phosphorylation; test: Western blot of AMPK phosphorylation in mature 3T3-L1 adipocytes; conditions: 5 or 10 µM for 1 h
Experimental: (§2) To further elucidate the pathway involved in 1e-mediated glucose uptake promotion, AMPK and Akt phosphorylation in mature 3T3-L1 adipocytes was evaluated via Western blotting following treatment with 5 or 10 µM 1e for 1 h.
(§3) The expression levels of glucose uptake-related proteins were determined via Western blotting, as previously described. In brief, differentiated 3T3-L1 cells were plated in six-well plates at a 1.5 × 10^4 cells/well density in a final volume of 2 mL. Then, the cells were incubated in the presence of DMSO or different concentrations of the compounds and harvested using a RIPA buffer (Sigma-Aldrich, Saint Louis, MS, USA) and a protease inhibitor cocktail (Roche Korea, Seoul, Korea) after 1 h of incubation. Equivalent amounts of proteins (20 µg) from each lysate were separated by 10% SDS-PAGE and transferred onto PVDF membranes (Merk KgaA, Darmstadt, Germany), where they were maintained for 120 min at 200 mA. The membranes were blocked with 5% skim milk for 1 h at room temperature in 0.1% TBST and then probed with primary antibodies at different concentrations in 0.1% BSA overnight at 4 °C according to the manufacturer’s instructions. Secondary antibodies were added to the membranes at a concentration of 1:2000 for 1 h at room temperature, and immunoreactive bands were detected via ECL (GE Healthcare Korea Co., Ltd., Incheon, Korea). […]

[3] = tested on: Akt phosphorylation; test: Western blot of Akt phosphorylation in mature 3T3-L1 adipocytes; conditions: compound only group and insulin co-treatment group
Experimental: as §2, §3

[4] = tested on: 3T3-L1 adipocytes; test: 2-NBDG glucose uptake assay in differentiated 3T3-L1 adipocytes; conditions: 10 µM, plate reader fluorescence
Experimental: as §1

[5] = tested on: AMPK phosphorylation; test: Western blot of AMPK phosphorylation in C2C12 myotubes
Experimental: To further investigate the mechanism of action of 1e, we evaluated its effects on AMPK and AKT phosphorylation in C2C12 myotubes. […] In line with the results obtained in 3T3-L1 cells, in the absence of insulin, 1e had no effects on basal p-Akt expression levels (Figure 6A).
as §3, with “The membranes were blocked with 5% skim milk for 1 h at room temperature in 0.1% TBST and then probed with primary antibodies at different concentrations in 0.1% BSA overnight at 4 °C according to the manufacturer’s instructions.” left out

CCCCCCCCCCCCCOc1cccc(O)c1C(=O)O [Compound 1e]
2-NBDG uptake increase compared to the DMSO control [1]: ~1.4 fold
AMPK phosphorylation [2]: significantly induced AMPK phosphorylation in a concentration-dependent manner
Akt phosphorylation levels [3]: no significant change
2-NBDG uptake increase compared to the DMSO control [4]: approximately 2.0 fold
AMPK phosphorylation [5]: significantly upregulated AMPK phosphorylation in a concentration-dependent manner
